In US11166891B2, “Bis phenyl hexa trien derivatives, preparation method thereof, and composition for skin whitening containing the same as an active ingredient” (Korea Research Institute of Chemical Technology, priority 2018, dated 2021):

How the values were obtained:
B16F10 melanoma cells = assay: Cytotoxicity, MTT assay; format: cell-based; conditions: 48 hours; for cytotoxicity: at the concentration of 10 μM or more
Protocol: B16F10 melanoma cells were distributed in a 96-well plate at the density of 2×10^3 cells/well. The cells were cultured in DMEM supplemented with 10% fetal bovine serum (FBS) at 37° C. in 5% CO2 for 24 hours. The cells were exposed on the compounds of example and comparative examples 1˜4 at the set concentration each for 48 hours. MTT assay was performed to evaluate cytotoxicity. To perform MTT assay, MTT solution was added to the cells, followed by reaction for 2 hours. Then, DMSO was added thereto to dissolve formazan crystals, followed by measurement of OD570.

mushroom tyrosinase = assay: Tyrosinase activity inhibition (L-DOPA oxidation); format: biochemical; conditions: pH 7.0, FIG. 8; for inhibitory effect on tyrosinase activity: 6.25 μM (equal concentration)
Protocol: Samples were dissolved in an organic solvent such as ethanol, which were diluted in a proper buffer such as 100 mM phosphate buffer (pH 7.0). Those samples diluted at a proper concentration in order to inhibit the activity to DOPA oxidation reaction were used as the sample solutions for the experiment. 850 μL of 100 mM phosphate buffer (pH 7.0), 50 μL of the sample solution and 50 μL of mushroom tyrosinase (2000 U/ml) were loaded in a test tube in that order, followed by reaction at 37° C. for 5 minutes. 50 μL of 0.06 mM L-DOPA (L-3,4-dihydroxyphenylalanine) solution was added thereto, and then OD475 was measured using a microplate reader. After reacting the solution at 37° C. for 15 minutes, OD475 was measured again. DMSO was used as the control and Kojic acid was used for the positive control.
Tyrosinase activity inhibition rate (%)=[(A-B)/A]×100
A: difference of OD in the control group (OD after the reaction—OD before the reaction)
B: difference of OD in the experimental group (OD after the reaction—OD before the reaction)

[1] = test system: TRP 1 (tyrosinase-related protein 1) gene expression in B16F10 melanoma cells; assay: Inhibition of TRP 1 gene expression (real-time PCR); format: cell-based; conditions: α-MSH 10 nM, compound 2 μM, 72 hours, FIG. 4a
Protocol: (§1) B16F10 melanoma cells were distributed in a 6-well plate, to which α-MSH (10 nM) (melanin synthesis inducing substance, alpha-melanocyte-stimulating hormone) and the compounds of example and comparative examples 1˜4 were treated at the concentration of 2 μM each, followed by exposure-culture for 72 hours. Then, the cells were harvested and total RNA of the cells was extracted using RNeasy mini kit (Qiagen). CDNA was synthesized by using M-MLV reverse transcriptase, 5X first-strand butter, dNTP mix and oligo(dT) primer (Thermo Fisher Scientific). The cDNA product, the primers of each gene and LightCycler® MultiplexMasters (Roche) were mixed, followed by SYBR Green-based real-time PCR using LightCycler® NanoInstrument (Roche). To relatively evaluate the level of tyrosinase mRNA expression, the expression was corrected based on the level of β-actin mRNA expression. The PCR conditions for gene amplification are as follows.
(§2) Evaluation of TRP 1 and TRP 2 gene expression was performed by the same manner as described in the evaluation of tyrosinase gene expression. Information on the primers used for the amplification of TRP 1 and TRP 2 gene expression is as follows.

[2] = test system: tyrosinase gene expression in B16F10 melanoma cells; assay: Inhibition of tyrosinase gene expression (real-time PCR); format: cell-based; conditions: α-MSH 10 nM, compound 2 μM, 72 hours, mRNA corrected to β-actin, FIG. 2
Protocol: as §1
Denaturation: 95° C., 10 seconds
Annealing: melting point of each primer, 10 seconds
Extension/Detection: 72° C., 20 seconds
Total cycle number: 45 cycles
Information on the primers used for the amplification of tyrosinase gene expression and information on the primers for β-actin used as a correction gene are as follows.

[3] = test system: melanin synthesis in B16F10 melanoma cells; assay: Melanin synthesis inhibition; format: cell-based; conditions: α-MSH 10 nM, 72 hours
Protocol: B16F10 melanoma cells were distributed in a 96-well plate at the density of 3×10^5 cells/well. The cells were cultured in DMEM supplemented with 10% FBS at 37° C. in 5% CO2 for 24 hours. […] The cells were harvested, followed by dissolving in 1 N NaOH by heating at 80° C. for 20 minutes. Then, OD490 was measured. The melanin synthesis inhibition rate was calculated as follows.
Melanin inhibition rate (%)=[(C−S)/C]×100
C: OD when α-MSH alone was treated.
S: OD when each sample was treated.

[4] = Antioxidative effect, DPPH radical scavenging activity test; conditions: 37° C., 30 minutes, FIG. 5
Protocol: The antioxidative effect was evaluated by 2,2-diphenyl-1-picrylhydrazyl (DPPH) radical scavenging activity test.
Dimethyl sulfoxide (DMSO), vitamin C and the compounds of example and comparative examples 1˜4 were added to a 96-well plate at each designated concentration, and 200 μL of 200 μM DPPH methanolic solution was added to each well. The plate was shaken gently to mix them all, followed by reaction at 37° C. for 30 minutes. Then, OD515 was measured. DMSO was used as the control for the measurement of antioxidative effect and vitamin C was used as the positive control for the measurement of antioxidative effect.

[5] = test system: MITF (microphthalmia-associated transcription factor) gene expression in B16F10 melanoma cells; assay: Inhibition of MITF gene expression (real-time PCR); format: cell-based; conditions: α-MSH 10 nM, compound 2 μM, 72 hours, FIG. 3
Protocol: as §1
Evaluation of MITF gene expression was performed by the same manner as described in the evaluation of tyrosinase gene expression in experimental example 1. Information on the primers used for the amplification of MITF gene expression is as follows.

[6] = test system: TRP 2 (tyrosinase-related protein 2) gene expression in B16F10 melanoma cells; assay: Inhibition of TRP 2 gene expression (real-time PCR); format: cell-based; conditions: α-MSH 10 nM, compound 2 μM, 72 hours, FIG. 4b
Protocol: as §1, §2

## COc1ccc(/C=C/C=C/C=C/c2ccc(OC)c(O)c2)cc1O [compound 4, 5,5′-((1E,3E,5E)-hexa-1,3,5-triene-1,6-diyl)bis(2-methoxyphenol)]
B16F10 melanoma cells
  cytotoxicity: strong cytotoxicity

## COc1ccc(/N=C/c2ccc(O)cc2O)cc1 [compound 2, (E)-4-((4-methoxyphenylimino)methyl)benzene-1,3-diol]
Mushroom tyrosinase
  inhibitory effect on tyrosinase activity: did not show inhibitory effect on tyrosinase activity

## COc1cccc(/C=C/C=C/C=C/c2cccc(OC)c2OC)c1OC [compound of example, (1E,3E,5E)-1,6-bis(2,3-dimethoxyphenyl)hexa-1,3,5-triene]
Mushroom tyrosinase; 6.25 μM
  reduction of tyrosinase activity: approximately 20%
[1]
  inhibitory effect on TRP 1 gene expression (relative expression level): excellent in inhibiting TRP1 and TRP2 gene expression
[2]
  inhibitory effect on tyrosinase gene expression (relative expression level): excellent in inhibiting tyrosinase gene expression
B16F10 melanoma cells; concentration increased from 5 μM to 15 μM, FIG. 6
  cell survival rate: ≥ 80%
[3]; versus comparative examples, FIG. 7
  melanin content in the cells: significantly lower
[3]; compound 1 μM, versus comparative examples 1˜4, FIG. 7
  melanin content in media and cells: lower in both media and cells
[4]; 40 μM, compared with comparative examples 1˜4
  antioxidative effect (DPPH radical scavenging activity): excellent antioxidative effect
[4]; about 25 μM, compared with comparative examples 1˜3
  antioxidative effect (DPPH radical scavenging activity): excellent antioxidative effect
[5]
  inhibitory effect on MITF gene expression (relative expression level): excellent in inhibiting MITF gene expression
[6]
  inhibitory effect on TRP 2 gene expression (relative expression level): excellent in inhibiting TRP1 and TRP2 gene expression

## Oc1ccc(/C=C/C=C/C=C/c2ccc(O)cc2)cc1 [compound 3, 4,4′-((1E,3E,5E)-hexa-1,3,5-triene-1,6-diyl)diphenol]
Mushroom tyrosinase
  inhibitory effect on tyrosinase activity: did not show inhibitory effect on tyrosinase activity
B16F10 melanoma cells
  cytotoxicity: strong cytotoxicity

## COc1cc(/C=C/C=C/C=C/c2ccc(O)c(OC)c2)ccc1O [comparative example 1, 4,4′-((1E,3E,5E)-hexa-1,3,5-triene-1,6-diyl)bis(2-methoxyphenol), reference compound]
[2]
  inhibitory effect on tyrosinase gene expression (relative expression level): hardly had inhibitory effect on the expression of tyrosinase gene
B16F10 melanoma cells
  cytotoxicity: strong cytotoxicity
